The text below walks through data of US3997518A, “2-Alkyl-4-carboxyalkyl-5-(3,3'-dimethyltriazeno)-imidazoles” (Beecham Group Limited, priority 1970, dated 1976).

Assay [1] relates to R1 lymphoma. Put plainly: Activity against R1 lymphoma, increase in survival time (Table A). The format is in vivo, mice. The settings on record: Mus musculus, ip, Table A strain, dose of maximum increase, read-out: Medium % increase in survival time; for ILS at 128 mg/kg: 128 mg/kg i.p. daily day 3 to day 7; for ILS at 64 mg/kg: 64 mg/kg i.p. daily day 3 to day 7; for ILS at 33 mg/kg: 33 mg/kg i.p. daily day 3 to day 7. As for the experimental part:
(§1) The R1 lymphoma is normally sensitive to anti-metabolites. Typically mice having a transplant of 1.5 × 10^6 tumour cells die from the metastisizing tumour on day 9, 10 or 11 after transplant.
(§2) The compounds illustrated below were dosed by the intra peritoneal route in a vehicle of 10% acetone in arachas oil daily from day 3 to day 7 after tumour transplant. The increase in survival time over control was measured.
(§3) The dose reported is that dose which gave the maximum increase in survival time. Lower doses gave less activity and higher doses are toxic.
(§4) The results are split into two sections (in Table A and Table B) because two slightly different strains of R1 lymphoma were used.

The test system of assay [2] is R1 lymphoma. Put plainly: Activity against R1 lymphoma, increase in survival time (Table B, slightly different strain). The settings on record: Table B strain, dose of maximum increase; for ILS at 128 mg/kg: 128 mg/kg i.p. daily day 3 to day 7. The format is in vivo, mice. As for the experimental part:
as §1, §2, §3, §4

[3] abbreviates: Mus musculus, ip, 32 mg/kg i.p. daily day 3 to day 7, read-out: Medium % increase in survival time.
Setting [4] is: Mus musculus, ip, read-out: Medium % increase in survival time.
Where [5] appears, read: 32 mg/kg i.p. daily day 3 to day 7.

`CCOC(=O)c1nc(-c2cccc(C)c2)[nH]c1N=NN(C)C` [4-Carboxyethyl-5-(3,3-dimethyltriazeno)-2-(3-methyl-phenyl) imidazole]: the ILS at 128 mg/kg in the assay with R1 lymphoma [1] worked out at 150%.
Take `CCOC(=O)c1nc(Cc2ccccc2)[nH]c1N=NN(C)C` [4-Carbethoxy-5-(3,3-di-methyl-triazeno)-2-benzyl imidazole]: in the assay on R1 lymphoma [1], the ILS at 64 mg/kg amounted to 200%.
For `CCOC(=O)c1nc(N(C)C)[nH]c1N=NN(C)C` [4-Carbethoxy-5-(3,3-dimethyltriazeno)-2-dimethylamino imidazole], in the assay on R1 lymphoma [2] (Mus musculus, ip, 16 mg/kg i.p. daily day 3 to day 7, read-out: Medium % increase in survival time), the ILS at 16 mg/kg was determined as 45%.
As for `COC(=O)c1nc(S)[nH]c1N=NN(C)C` [4-Carbmethoxy-5-(3,3-dimethyltriazeno)-2-mercapto imidazole], in the assay on R1 lymphoma [2] (setting [3]), the ILS at 32 mg/kg came out at 90%.
`Cc1nc(C(N)=O)c(N=NN(C)C)[nH]1` [4-Carboxamido-5-(3,3-dimethyltriazeno)-2-methyl imidazole]: the ILS at 128 mg/kg in the assay on R1 lymphoma [2] (setting [4]) stood at 60%.
`CCOC(=O)Cc1nc(C(=O)OCC)c(N=NN(C)C)[nH]1` [4-Carbethoxy-5-(3,3-dimethyltriazeno)-2-carbethoxymethyl imidazole]: in the assay on R1 lymphoma [1], the ILS at 64 mg/kg came out at 400%.
Turning to `CCOC(=O)c1nc(CC)[nH]c1N=NN(C)C` [4-Carbethoxy-5-(3,3-dimethyltriazeno)-2-ethyl imidazole], in the assay on R1 lymphoma [2] (setting [3]), the ILS at 32 mg/kg is 70%.
`CCOC(=O)c1nc(S)[nH]c1N=NN(C)C` [4-Carbethoxy-5-(3,3-dimethyltriazeno)-2-mercapto imidazole]: the ILS at 128 mg/kg with R1 lymphoma [2] (setting [4]) turned out to be 140%.
Take `CCOC(=O)c1nc(-c2cccnc2)[nH]c1N=NN(C)C` [4-Carbethoxy-5-(3,3-dimethyltriazeno)-2-(3-pyridyl)imidazole]: the ILS at 32 mg/kg with R1 lymphoma [1] (setting [5]) worked out at 170%.
Turning to `CCOC(=O)c1nc(-c2ccc(OC)c(OC)c2)[nH]c1N=NN(C)C` [4-Carboxyethyl-5-(3,3-dimethyltriazeno)-2-(3,4-dimethoxy-phenyl) imidazole], in the assay on R1 lymphoma [1], the ILS at 33 mg/kg came to 200%.
With `CN(C)N=Nc1[nH]c(-c2cccs2)nc1C(N)=O` [4-Carboxamido-5-(3,3-dimethyltriazeno)-2-(2-thienyl)imidazole], the ILS at 128 mg/kg in the assay with R1 lymphoma [1] stood at 50%.
Take `CCOC(=O)c1nc(COc2ccc(OC)cc2)[nH]c1N=NN(C)C` [4-Carbethoxy-5-(3,3-dimethyltriazeno)-2-p-methoxy-phenoxymethylimidazole]: the ILS at 64 mg/kg with R1 lymphoma [1] was more than 150%.
As to `CCCc1nc(C(=O)OCC)c(N=NN(C)C)[nH]1` [4-Carbethoxy-5-(3,3-dimethyltriazeno)-2-n propyl imidazole], in the assay with R1 lymphoma [2] (setting [3]), the ILS at 32 mg/kg amounted to 130%.
For `CCOC(=O)c1nc(C)n(C)c1N=NN(C)C` [4-Carbethoxy-5-(3,3-dimethyltriazeno-1-2 dimethylimidazole], the “Medium % increase in survival time” value in the assay with R1 lymphoma [2] (setting [5]) came to 65%.
With `CCOC(=O)c1nc(-c2ccc3ccccc3c2)[nH]c1N=NN(C)C` [4-Carboxyethyl-5-(3,3-dimethyltriazeno)-2-(2-naphthyl) imidazole], in the assay with R1 lymphoma [1], the ILS at 128 mg/kg turned out to be 170%.
As to `COC(=O)c1nc(-c2ccccc2)[nH]c1N=NN(C)C`, the ILS at 16 mg/kg in the assay on R1 lymphoma [1] (16 mg/kg i.p. daily day 3 to day 7) amounted to 400%.
As for `CCOC(=O)c1nc(-c2ccsc2)[nH]c1N=NN(C)C` [4-Carboxyethyl-5-(3,3-dimethyltriazeno)-2-(3-thienyl) imidazole], the ILS at 33 mg/kg in the assay on R1 lymphoma [1] was 200%.
With `CCOC(=O)c1nc(-c2ccccc2F)[nH]c1N=NN(C)C` [4-Carboxyethyl-5-(3,3-dimethyltriazeno)-2-(2-fluorophenyl) imidazole], the ILS at 10 mg/kg with R1 lymphoma [1] (10 mg/kg i.p. daily day 3 to day 7) is 100%.
Regarding `CCOC(=O)c1nc(-c2ccc(Cl)cc2)[nH]c1N=NN(C)Cc1ccccc1` [4-Carboxyethyl-5-(3-methyl-3-benzyltriazeno)-2-(4-chlorophenyl)imidazole], the ILS at 100 mg/kg in the assay with R1 lymphoma [1] (100 mg/kg i.p. daily day 3 to day 7) stood at 40%.
On to `CCOC(=O)c1nc(-c2ccc(OC)cc2)[nH]c1N=NN(C)C` [4-Carboxyethyl-5-(3,3-dimethyltriazeno)-2-(4-methoxyphenyl) imidazole], for which the ILS at 33 mg/kg in the assay with R1 lymphoma [1] worked out at 50%.
As for `CCOC(=O)c1nc(COc2ccccc2)[nH]c1N=NN(C)C` [4-Carbethoxy-5-(3,3-dimethyltriazeno)-2-phenoxymethyl imidazole], the ILS at 64 mg/kg with R1 lymphoma [1] came out at 85%.
